Drawing on ChEMBL document CHEMBL5241071, “Covalent Small Molecule Immunomodulators Targeting the Protease Active Site” (J Med Chem, 2021), this text covers IC50 and kobs/[I] for 2 compounds.

One assay concerns the target T1, Neutrophil elastase (Homo sapiens, UniProt P08246).
T1 sequence (P08246 whole entry): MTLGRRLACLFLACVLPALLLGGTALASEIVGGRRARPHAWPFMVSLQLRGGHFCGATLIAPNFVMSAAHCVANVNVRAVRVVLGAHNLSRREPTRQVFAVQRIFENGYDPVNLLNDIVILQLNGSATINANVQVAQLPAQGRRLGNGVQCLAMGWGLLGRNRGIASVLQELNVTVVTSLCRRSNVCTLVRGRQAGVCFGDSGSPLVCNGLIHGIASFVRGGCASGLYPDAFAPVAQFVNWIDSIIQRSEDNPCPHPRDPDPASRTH
Nature of the assay: Inhibition of human NE.

Assay [1] concerns the target T2, Granzyme A (Homo sapiens) (UniProt P12544).
T2 sequence (whole entry): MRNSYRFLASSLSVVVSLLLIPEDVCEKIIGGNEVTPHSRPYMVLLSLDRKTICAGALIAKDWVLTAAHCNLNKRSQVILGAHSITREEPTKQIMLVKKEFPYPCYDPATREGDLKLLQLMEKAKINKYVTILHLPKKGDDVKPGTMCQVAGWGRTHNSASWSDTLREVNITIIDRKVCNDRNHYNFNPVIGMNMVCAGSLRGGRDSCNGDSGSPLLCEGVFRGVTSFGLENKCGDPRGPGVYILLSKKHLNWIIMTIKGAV
Nature of the assay: Inhibition of human recombinant GzmA assessed as Kobs/[I].

`O=S(=O)(F)Oc1ccccc1S(=O)(=O)F` displayed a half-maximal inhibitory concentration (IC50) on Neutrophil elastase of 0.24 µM.
Regarding `N=C(N)SCCOc1oc(=O)c2cc(NC(=O)Nc3ccccc3)ccc2c1Cl`, the kobs/[I] in assay [1] was 94000 M⁻¹ s⁻¹.
